Measured values from the CheMixHub viscosity set.
Values joined by “and” are separate entries in the source; they are usually repeats but may differ in a detail not shown here. Equal values may be shown once.

Experiments:
[1] = xn = mol fraction of the nth substance listed

CCCCN
viscosity
Settings | 293.15 K | 298.15 K | 303.15 K | 308.15 K | 313.15 K | 318.15 K | 323.15 K
100 kPa | – | 0.468 mPa·s | 0.458 mPa·s | – | 0.398 mPa·s | – | 0.353 mPa·s
101 kPa | 0.55 mPa·s and 0.523 mPa·s | 0.48 mPa·s and 0.474 mPa·s | – | – | 0.401 mPa·s and 0.3922 mPa·s and 0.3891 mPa·s | 0.3695 mPa·s | 0.3491 mPa·s
101.33 kPa | – | – | – | 0.412 mPa·s | 0.3891 mPa·s and 0.3887 mPa·s and 0.397 mPa·s | 0.3676 mPa·s | 0.3486 mPa·s and 0.355 mPa·s

OC1CCCCCC1
100 kPa
Settings | viscosity [mPa·s]
293.15 K | 68.77
298.15 K | 53.6
303.15 K | 43.34
308.15 K | 35.61
313.15 K | 30.84
318.15 K | 26.6

CCCCN + O
viscosity, [1]
Settings | 298.15 K | 303.15 K | 308.15 K | 313.15 K | 318.15 K | 323.15 K
100 kPa, x1 = 0.1 | – | 1.869 mPa·s | – | 1.43 mPa·s | – | 1.133 mPa·s
100 kPa, x1 = 0.2 | – | 2.115 mPa·s | – | 1.604 mPa·s | – | 1.25 mPa·s
100 kPa, x1 = 0.3 | – | 1.933 mPa·s | – | 1.462 mPa·s | – | 1.143 mPa·s
100 kPa, x1 = 0.4 | – | 1.597 mPa·s | – | 1.234 mPa·s | – | 0.979 mPa·s
100 kPa, x1 = 0.5 | – | 1.273 mPa·s | – | 0.996 mPa·s | – | 0.808 mPa·s
100 kPa, x1 = 0.6 | – | 0.993 mPa·s | – | 0.796 mPa·s | – | 0.654 mPa·s
100 kPa, x1 = 0.7 | – | 0.786 mPa·s | – | 0.649 mPa·s | – | 0.547 mPa·s
100 kPa, x1 = 0.8 | – | 0.626 mPa·s | – | 0.533 mPa·s | – | 0.453 mPa·s
100 kPa, x1 = 0.9 | – | 0.541 mPa·s | – | 0.454 mPa·s | – | 0.393 mPa·s
101.33 kPa, x1 = 0.0001 | – | 0.8019 mPa·s | 0.7212 mPa·s | 0.6564 mPa·s | 0.6007 mPa·s | 0.5542 mPa·s
101.33 kPa, x1 = 0.1 | 2.372 mPa·s | 1.885 mPa·s | 1.642 mPa·s | 1.574 mPa·s and 1.441 mPa·s | 1.278 mPa·s | 1.142 mPa·s
101.33 kPa, x1 = 0.1998 | – | 2.149 mPa·s | 1.861 mPa·s | 1.625 mPa·s | 1.433 mPa·s | 1.271 mPa·s
101.33 kPa, x1 = 0.2 | 2.685 mPa·s | – | – | 1.742 mPa·s | – | –
101.33 kPa, x1 = 0.2999 | – | 1.964 mPa·s | 1.707 mPa·s | 1.494 mPa·s | 1.318 mPa·s | 1.172 mPa·s
101.33 kPa, x1 = 0.3999 | – | 1.601 mPa·s | 1.405 mPa·s | 1.242 mPa·s | 1.111 mPa·s | 0.9871 mPa·s
101.33 kPa, x1 = 0.4 | 2.006 mPa·s | – | – | 1.353 mPa·s | – | –
101.33 kPa, x1 = 0.5 | – | 1.259 mPa·s | 1.118 mPa·s | 0.9974 mPa·s | 0.8979 mPa·s | 0.8131 mPa·s
101.33 kPa, x1 = 0.5997 | – | 0.9797 mPa·s | 0.8813 mPa·s | 0.7976 mPa·s | 0.726 mPa·s | 0.6647 mPa·s
101.33 kPa, x1 = 0.6 | 1.153 mPa·s | – | – | 0.842 mPa·s | – | –
101.33 kPa, x1 = 0.7 | – | 0.7677 mPa·s | 0.701 mPa·s | 0.6419 mPa·s | 0.5911 mPa·s | 0.5472 mPa·s
101.33 kPa, x1 = 0.7999 | – | 0.6277 mPa·s | 0.5795 mPa·s | 0.5366 mPa·s | 0.4994 mPa·s | 0.4656 mPa·s
101.33 kPa, x1 = 0.8 | 0.686 mPa·s | – | – | 0.54 mPa·s | – | –
101.33 kPa, x1 = 0.9001 | – | 0.5178 mPa·s | 0.4829 mPa·s | 0.4518 mPa·s | 0.4243 mPa·s | 0.399 mPa·s
